Experimental data taken from ChEMBL document CHEMBL5352410, “Discovery of novel selenium-containing azole derivatives as antifungal agents by exploiting the hydrophobic cleft of CYP51” (Eur J Med Chem, 2022).
Converted amounts (≈) assume the structure as drawn.

Assays:
Assay type in all cases: functional
[Candida] zeylanoides = Antifungal activity against Candida zeylanoides by CLSI based broth microdilution method; details: Dujonia zeylanoides
Candida albicans [1] = test: Antifungal activity against FCZ-resistant Candida albicans 904 by CLSI based broth microdilution method
Nakaseomyces glabratus = test: Antifungal activity against Candida glabrata by CLSI based broth microdilution method
Candida albicans [2] = test: Antifungal activity against FCZ-resistant Candida albicans CaR by CLSI based broth microdilution method
Candida albicans [3] = test: Antifungal activity against FCZ-resistant Candida albicans 901 by CLSI based broth microdilution method
Candida albicans [4] = test: Antifungal activity against FCZ-resistant Candida albicans 632 by CLSI based broth microdilution method
Candida albicans [5] = test: Antifungal activity against FCZ-resistant Candida albicans 17# by CLSI based broth microdilution method
Candida albicans [6] = test: Antifungal activity against Candida albicans sc5314 by CLSI based broth microdilution method
Pichia kudriavzevii = test: Antifungal activity against Pichia kudriavzevii by CLSI based broth microdilution method
Aspergillus fumigatus = test: Antifungal activity against Aspergillus fumigatus by CLSI based broth microdilution method
Cryptococcus neoformans = test: Antifungal activity against Cryptococcus neoformans by CLSI based broth microdilution method
Candida parapsilosis = test: Antifungal activity against Candida parapsilosis by CLSI based broth microdilution method; details: Lodderomyces parapsilosis
Candida albicans [7] = test: Antifungal activity against Candida albicans by CLSI based broth microdilution method

Structure (SMILES)	MIC ([Candida] zeylanoides)	MIC (Candida albicans [1])	MIC (Nakaseomyces glabratus)	MIC (Candida albicans [2])	MIC (Candida albicans [3])	MIC (Candida albicans [4])	MIC (Candida albicans [5])	MIC (Candida albicans [6])	MIC (Pichia kudriavzevii)	MIC (Aspergillus fumigatus)	MIC (Cryptococcus neoformans)	MIC (Candida parapsilosis)	MIC (Candida albicans [7])
Fc1ccc(C(Cn2cnnn2)[Se]C(Cn2cnnn2)c2ccc(F)cc2)cc1 (centres undefined)	32 µg/mL (≈ 69.4 µM)	> 64 µg/mL	> 64 µg/mL	> 64 µg/mL	> 64 µg/mL	> 64 µg/mL	> 64 µg/mL	> 64 µg/mL	> 64 µg/mL	> 64 µg/mL	> 64 µg/mL	> 64 µg/mL	> 64 µg/mL
Fc1ccc(C(Cn2ccnn2)[Se][Se]C(Cn2ccnn2)c2ccc(F)cc2)cc1 (centres undefined)	–	> 64 µg/mL	–	32 µg/mL (≈ 59.4 µM)	> 64 µg/mL	> 64 µg/mL	> 64 µg/mL	–	–	–	–	–	–
Clc1ccc(C(Cn2cnnn2)[Se][Se]C(Cn2cnnn2)c2ccc(Cl)cc2)cc1 (centres undefined)	–	> 64 µg/mL	–	> 64 µg/mL	> 64 µg/mL	> 64 µg/mL	> 64 µg/mL	–	–	–	–	–	–
Fc1ccc(C(Cn2cnnn2)[Se]C(Cn2cnnn2)c2ccc(F)cc2F)c(F)c1 (centres undefined)	> 64 µg/mL	> 64 µg/mL	> 64 µg/mL	> 64 µg/mL	> 64 µg/mL	> 64 µg/mL	> 64 µg/mL	> 64 µg/mL	> 64 µg/mL	> 64 µg/mL	> 64 µg/mL	> 64 µg/mL	> 64 µg/mL
Clc1ccc(C(Cn2cncn2)[Se][Se]C(Cn2cncn2)c2ccc(Cl)cc2Cl)c(Cl)c1 (centres undefined)	–	> 64 µg/mL	–	8 µg/mL (≈ 12.5 µM)	> 64 µg/mL	> 64 µg/mL	16 µg/mL (≈ 25 µM)	–	–	–	–	–	–
Fc1ccc(C(Cn2cncn2)[Se]C(Cn2cncn2)c2ccc(F)cc2F)c(F)c1 (centres undefined)	8 µg/mL (≈ 16.2 µM)	16 µg/mL (≈ 32.3 µM)	> 64 µg/mL	32 µg/mL (≈ 64.6 µM)	16 µg/mL (≈ 32.3 µM)	32 µg/mL (≈ 64.6 µM)	8 µg/mL (≈ 16.2 µM)	4 µg/mL (≈ 8.08 µM)	> 64 µg/mL	> 64 µg/mL	4 µg/mL (≈ 8.08 µM)	> 64 µg/mL	64 µg/mL (≈ 129 µM)
Clc1ccc(C(Cn2ccnn2)[Se][Se]C(Cn2ccnn2)c2ccc(Cl)cc2Cl)c(Cl)c1 (centres undefined)	–	> 64 µg/mL	–	4 µg/mL (≈ 6.25 µM)	> 64 µg/mL	> 64 µg/mL	64 µg/mL (≈ 100 µM)	–	–	–	–	–	–
Fc1ccc(C(Cn2ccnn2)[Se][Se]C(Cn2ccnn2)c2ccc(F)cc2F)c(F)c1 (centres undefined)	–	> 64 µg/mL	–	4 µg/mL (≈ 6.96 µM)	> 64 µg/mL	> 64 µg/mL	16 µg/mL (≈ 27.9 µM)	–	–	–	–	–	–
Fc1ccc(C(Cn2cnnn2)[Se][Se]C(Cn2cnnn2)c2ccc(F)cc2F)c(F)c1 (centres undefined)	–	> 64 µg/mL	–	> 64 µg/mL	> 64 µg/mL	> 64 µg/mL	64 µg/mL (≈ 111 µM)	–	–	–	–	–	–
Clc1ccc(C(Cn2cnnn2)[Se][Se]C(Cn2cnnn2)c2ccc(Cl)cc2Cl)c(Cl)c1 (centres undefined)	–	> 64 µg/mL	–	64 µg/mL (≈ 99.7 µM)	> 64 µg/mL	> 64 µg/mL	64 µg/mL (≈ 99.7 µM)	–	–	–	–	–	–
CCC(C)n1ncn(-c2ccc(N3CCN(c4ccc(OCC5COC(Cn6cncn6)(c6ccc(Cl)cc6Cl)O5)cc4)CC3)cc2)c1=O (centres undefined) [ITRACONAZOLE]	–	> 64 µg/mL	–	8 µg/mL (≈ 11.3 µM)	> 64 µg/mL	> 64 µg/mL	> 64 µg/mL	–	–	–	–	–	–
Fc1ccc(C(Cn2cnnn2)[Se][Se]C(Cn2cnnn2)c2ccc(F)cc2)cc1 (centres undefined)	–	> 64 µg/mL	–	16 µg/mL (≈ 29.6 µM)	> 64 µg/mL	> 64 µg/mL	32 µg/mL (≈ 59.2 µM)	–	–	–	–	–	–
Clc1ccc(C(Cn2cncn2)[Se][Se]C(Cn2cncn2)c2ccc(Cl)cc2)cc1 (centres undefined)	–	16 µg/mL (≈ 28 µM)	–	4 µg/mL (≈ 7 µM)	16 µg/mL (≈ 28 µM)	> 64 µg/mL	64 µg/mL (≈ 112 µM)	–	–	–	–	–	–
Fc1ccc(C(Cn2cncn2)[Se][Se]C(Cn2cncn2)c2ccc(F)cc2)cc1 (centres undefined)	–	16 µg/mL (≈ 29.7 µM)	–	4 µg/mL (≈ 7.43 µM)	16 µg/mL (≈ 29.7 µM)	64 µg/mL (≈ 119 µM)	16 µg/mL (≈ 29.7 µM)	–	–	–	–	–	–
Clc1ccc(C(Cn2ccnn2)[Se][Se]C(Cn2ccnn2)c2ccc(Cl)cc2)cc1 (centres undefined)	–	> 64 µg/mL	–	> 64 µg/mL	> 64 µg/mL	> 64 µg/mL	> 64 µg/mL	–	–	–	–	–	–
Fc1ccc(C(Cn2cncn2)[Se][Se]C(Cn2cncn2)c2ccc(F)cc2F)c(F)c1 (centres undefined)	–	64 µg/mL (≈ 111 µM)	–	16 µg/mL (≈ 27.9 µM)	16 µg/mL (≈ 27.9 µM)	> 64 µg/mL	8 µg/mL (≈ 13.9 µM)	–	–	–	–	–	–
